Here are results for 10 molecules from patent US20120157401A1, “METHODS FOR TREATING NEUROFIBROMATOSIS” (PTC Therapeutics, Inc., priority 2009, published 2012).

Assay [1] concerns hypoxia-inducible endogenous VEGF expression. Put plainly: Hypoxia-inducible endogenous VEGF expression ELISA in HeLa cells, dose-response EC50 (Table 3). In kind it is cell-based, human. As to conditions: Homo sapiens; HeLa cells, hypoxic conditions (1% O2), 24-48 hours, VEGF in conditioned media; read-out: ELISA EC50. In outline: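 HeLa cells kept 24-48 h under hypoxia (1% O2, 5% CO2, nitrogen balance) with or without compound, e.g. seven concentrations; secreted VEGF in conditioned medium quantified by ELISA against a standard curve. Parallel Cell Titer Glo viability under identical conditions excludes cytotoxicity.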

Assay [2] deals with IL-6. Description: Patients: serum and plasma IL-6 levels. Type of assay: in vivo, human. How it is done: Subjects with NF2 may receive continuous daily treatment with a Compound administered at 100 mg per dose, 2 times a day (BID) for up to 1 year, or longer as appropriate, or until tumor progression. […] Tumor shrinkage or an improvement in hearing are indicators of efficacy.
Anti-angiogenic activity: Assessing VEGF concentrations provides a relevant and convenient mechanism-specific marker of Compound activity. […] For example, clinically validated ELISA kits (e.g., from R&D Systems, Minneapolis, Minn.) may be used to measure concentrations of VEGF, VEGF-C, P1GF, VEGFR, and inflammatory mediators such as IL-6 and IL-8. CT scan and MRI scan may also be used to assess peritumoral inflammation or edema.
Blood for VEGF, VEGFR, and Cytokines. Two blood samples (1 for plasma and 1 for serum) may be obtained for assessment of VEGF, VEGFR, and cytokine levels.
After processing, samples may be placed into a freezer at approximately −70° C. An ELISA-based multiplex system may be used to measure plasma VEGF and cytokine levels.

The subject of assay [3] is HT1080 xenografts. Put plainly: BrdU labeling of cells from HT1080 xenografts grown in nude mice. Type of assay: in vivo, athymic nude mice. The settings on record: Day 1, 2, 3; Compound #10 10 mg/kg oral QD, doxorubicin 6 mg/kg IP, bevacizumab 5 mg/kg IP. The procedure:
(§1) Experimental Design. HT1080 cells (5×10^6 cells/mouse) were implanted subcutaneously in male athymic nude mice.
The mice were sacrificed 3 hours later, and the tumors collected. A single cell suspension was prepared from the tumor cells. The cells were permeabilized and an antibody to BrdU was used to stain cells that had entered S phase during the labeling period. The proportion of cells actively synthesizing DNA was determined by cell sorting.
A general note: Uptake of a labelled nucleoside into DNA is a usual measure of proliferation.

Assay [4] has as its system human VEGF121 and VEGF165. Description: HT1080 xenograft time course: pathologic plasma human VEGF. In kind it is in vivo. The settings on record: by Day 1. How it is done: as §1
Tumor size was measured by calipers immediately pre-treatment and at the time of sacrifice on Day 1, 2, or 3 (5 mice per group per day). At sacrifice, the plasma was collected for assay of pathologic human VEGF concentration using an ELISA that recognizes human VEGF121 and VEGF165 (as described in Section 9.1.1.1).
(In general: In xenograft studies the graft and the host belong to different species.)

The subject of assay [5] is soluble VEGF121 and VEGF165 isoforms. Description: VEGF inhibition EC50 by ELISA in the same human tumor cell lines (Table 25). Type of assay: cell-based. As to conditions: tumor cells; data not shown. The procedure:
Results. […] The conditioned media were collected and assayed by ELISA for soluble VEGF121 and VEGF165 isoforms (as described in Section 9.1.1.1); results were calculated as percentage inhibition relative to vehicle treated controls. EC50 values were calculated from the concentration response curves.
(In general: ELISA stands for enzyme-linked immunosorbent assay.)

In assay [6] the test system is HT1080 cells. Description: Cell cycle analysis by propidium iodide flow cytometry in HT1080 cells (percent cells in S-phase, Table 24). In kind it is cell-based, human. The settings on record: for % Cells In S-Phase: HT1080 cells, 100 nM, 18 hours, normoxic, DMSO control […]. The procedure: Experimental Design. […] After treatment, cells were trypsinized, and stained with propidium iodide (PI) dye to measure DNA content of individual cells by flow cytometry. Output comprised histograms showing relative DNA content in 10,000 cells.
While compounds which cause greater than 20% of the cells to accumulate in S-phase at 100 nM are considered active, a larger percentage of cells may be accumulated in S-phase at lower doses depending on the Compound, as shown in FIG. 12 for example.

Assay [7] relates to T47D xenografts. Put plainly: T47D estrogen-sensitive breast cancer xenograft: tumor growth. The settings on record: 10 mg/kg oral QD.
Procedure: Experimental Design. Estrogen pellets (0.72 mg/pellet) were implanted 30 days prior to cell implantation and again 60 days later. T47D estrogen-sensitive breast cancer cells (5×10^6 cells/mouse mixed 1:1 with […] ™) were implanted subcutaneously in female athymic nude mice. […] Tamoxifen was included as a positive control.
Tumor size was measured by calipers at periodic intervals. After 74 days of treatment, the mice were sacrificed.
Assay [8] concerns HT1080 tumor cells in vivo. Put plainly: HT1080 xenograft studies of Compound 1205, Compound #10 and Compound 1330: tumor growth. Further details: species or system athymic nude mice. The source says:
Experimental Design. HT1080 cells (5×10^6 cells/mouse) were implanted subcutaneously in male athymic nude mice. […] For comparison, Compound #10 was included in this study.

For assay [9], the system named is human VEGF121 and VEGF165. Put plainly: HT1080 xenograft studies #21/#23: intra-tumor and pathologic plasma human VEGF (Compound 1205). In kind it is in vivo. The settings on record: for Mean difference in human plasma VEGF (%) on Day 14 / Mean difference in human tumor VEGF (%) at Day 14: 14 days. An excerpt:
Experimental Design. HT1080 cells (5×10^6 cells/mice) were implanted subcutaneously into male athymic nude mice. Treatment with vehicle alone or Compound 1205 was initiated when the median tumor volume was approximately 311±88 mm^3. Table 7 and Table 9 (study design #21 and #23) provide the study design for assessing tumor and plasma pathologic VEGF concentrations—each group in each study included eight (8) mice. When the tumors in vehicle-treated mice had reached the target size of ˜1200 mm^3 for study #21 and ˜1500 mm^3 for study #23, all mice in the study were sacrificed, and excised tumors were homogenized in buffer containing protease inhibitors. Both intra-tumor and pathologic plasma human VEGF levels were measured using an ELISA that recognizes human VEGF121 and VEGF165. Intra-tumor VEGF levels were normalized to the total tumor protein concentration and pathologic plasma VEGF levels were expressed in pg/mL. Because smaller tumors produce less VEGF per mg of tumor protein, intra-tumor VEGF levels were normalized to tumor size.

Each structure is given as a SMILES string. pEC50: −log10 of the molar value. Marks after values point to notes of the source that are not given here.

A word on the pEC50: it is −log10 of the EC50, conventionally taken in molar units. `COc1ccc([C@H]2c3[nH]c4ccc(Cl)cc4c3CCN2C(=O)Oc2ccc(Cl)cc2)cc1` [#10]: in [1], the pEC50 is over 8.10. In [2], the “Serum IL-6 levels in patients (FIG. 37)” value was “reduced”.

As to `COc1cccc2c1C(=O)c1c(O)c3c(c(O)c1C2=O)C[C@@](O)(C(=O)CO)C[C@@H]3O[C@H]1C[C@H](N)[C@H](O)[C@H](C)O1` [doxorubicin, reference compound], the “BrdU staining of tumor cells (proportion of cells in S phase)” value in [3] is given as “decreased the percentage of tumor cells staining with BrdU”. Also, the “Pathologic plasma human VEGF levels vs control animals” value in assay [4] is “numerically lower than in control animals”.

As to `NC(Cn1ccc(=O)c(O)c1)C(=O)O` (stereo not shown) [mimosine, reference compound], in assay [5], the “Effect on VEGF production” value was “does not delay or prolong the cell cycle or reduce VEGF production”. In addition, the “Effect on the cell cycle” value in assay [6] (tumor cells, data not shown) was “does not delay or prolong the cell cycle”.

Take `CC/C(=C(\c1ccccc1)c1ccc(OCCN(C)C)cc1)c1ccccc1` [Tamoxifen, tamoxifen, reference compound]: the “Mean % Inhibition of Tumor Size vs Vehicle at Day 74” value in assay [7] worked out at 50%.

With `O=C(Oc1ccc(Cl)cc1)N1CCc2c([nH]c3ccc(Cl)cc23)[C@@H]1c1ccc(OCC[C@H](O)CO)cc1` [Compound 1205], the negative logarithm of the EC50 (pEC50) in assay [1] is over 8.10. Further, the “Lowest dose at which active on tumor growth” value in assay [8] (HT1080 xenografts, QD) worked out at 0.3 mg/kg. In addition, the “Mean difference in tumor growth rate at the Day that the vehicle-treated tumors taken off study” value came out at 61%** in [8] (Study 21, 0.5 mg/kg QD, Day 14); 80%** in assay [8] (Study 21, 3 mg/kg QD, Day 14); 62%** in [8] (Study 22, 0.5 mg/kg QD, Day 11); 75%** in assay [8] (Study 22, 3 mg/kg QD, Day 11); 59%** in [8] (Study 23, 1 mg/kg QD, Day 14); 76%** in [8] (Study 24a, 10 mg/kg QD, Day 11). For the same molecule, the “Mean difference in tumor growth rate at the Day that the vehicle-treated tumors taken off study” value in [8] (Study 24b, 0.3 mg/kg QD, Day 15) worked out at 28%. The “Final mean terminal tumor size in treatment group” value in assay [8] (Study 21, 0.5 mg/kg QD, PD, 14 days) came out at 580 mm^3; in assay [8] (Study 21, 3 mg/kg QD, PD, 14 days), 379 mm^3; in assay [8] (Study 22, 0.5 mg/kg QD, Xeno) it was 1750 mm^3; in assay [8] (Study 22, 3 mg/kg QD, Xeno) it was 1840 mm^3; in assay [8] (Study 23, 1 mg/kg QD, PD, 14 days), 710 mm^3; in [8] (Study 24a, 10 mg/kg QD, Xeno) it was 1400 mm^3. Besides, the “Final mean terminal tumor size in treatment group” value in assay [8] (Study 24b, 0.3 mg/kg QD, Xeno) is listed as 1540 mm^3. The “Difference vs. vehicle in median number of days to reach 1000 mm^3” value in assay [8] (Study 22, 0.5 mg/kg QD) was 11 days; in [8] (Study 22, 3 mg/kg QD), 14** Days; in assay [8] (Study 24a, 10 mg/kg QD), 14** Days; in [8] (Study 24b, 0.3 mg/kg QD), 0.7 days. Further, the “Inhibition of pathologic plasma human VEGF levels” value in assay [9] (0.5 or 3 mg/kg QD) is reported as “more than 95%”. Besides, the “Inhibition of tumor human VEGF levels” value in assay [9] (0.5 or 3 mg/kg QD) is recorded as “more than 95%”. Also, the “Mean difference in human plasma VEGF (%) on Day 14” value in assay [9] (Study #21, 0.5 mg/kg QD) is reported as 97%**; in [9] (Study #21, 3 mg/kg QD) it was 99%; in [9] (Study #23, 1 mg/kg QD), 100%**. In addition, the “Mean difference in human tumor VEGF (%) at Day 14” value in assay [9] (Study #21, 0.5 mg/kg QD) was 95%**; in assay [9] (Study #21, 3 mg/kg QD), 98%**; in [9] (Study #23, 1 mg/kg QD), 95** %.

Regarding `COc1ccc([C@@H]2c3[nH]c4ccc(Cl)cc4c3CCN2C(=O)Oc2ccc(Cl)cc2)cc1`, the “% Cells In S-Phase” value in [6] worked out at 16.8%.

As to `O=C(Oc1ccc(Cl)cc1)N1CCc2c([nH]c3ccc(Cl)cc23)[C@H]1c1ccc(OCC[C@H](O)CO)cc1` [drawing 538], the “% Cells In S-Phase” value in assay [6] stood at 17%.

`O=C(Oc1ccc(F)cc1)N1CCc2c([nH]c3ccc(Cl)cc23)[C@H]1c1ccc(OCCCn2ccnn2)cc1`: the “% Cells In S-Phase” value in [6] was determined as 16.4%.

On to `O=C(Oc1ccc(F)cc1)N1CCc2c([nH]c3ccc(Cl)cc23)[C@@H]1c1ccc(OCCCn2ccnn2)cc1`, for which the “% Cells In S-Phase” value in assay [6] turned out to be 25.7%.

As to `O=C(Oc1ccc(Cl)cc1)N1CCc2c([nH]c3ccc(Cl)cc23)C1c1ccc(OCCN2CCCCC2)cc1` (stereo not shown), the “% Cells In S-Phase” value in assay [6] came to 16.8%.
